Measurements published in ChEMBL document CHEMBL1201862, “PubChem BioAssay data set” (2004).
Calls of active or inactive are those of the source. Rule as the data show it: actives have a measured IC50 and inactives only a lower limit.

How the values were obtained:
[1] = target: T1, Sentrin-specific protease 6 (Homo sapiens, UniProt Q9GZR1); assay type: functional;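 also: Luminescence-based dose-response confirmatory assay of SENP6 inhibition, following up an ultra-high-throughput screen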
T1 sequence (Q9GZR1 whole entry): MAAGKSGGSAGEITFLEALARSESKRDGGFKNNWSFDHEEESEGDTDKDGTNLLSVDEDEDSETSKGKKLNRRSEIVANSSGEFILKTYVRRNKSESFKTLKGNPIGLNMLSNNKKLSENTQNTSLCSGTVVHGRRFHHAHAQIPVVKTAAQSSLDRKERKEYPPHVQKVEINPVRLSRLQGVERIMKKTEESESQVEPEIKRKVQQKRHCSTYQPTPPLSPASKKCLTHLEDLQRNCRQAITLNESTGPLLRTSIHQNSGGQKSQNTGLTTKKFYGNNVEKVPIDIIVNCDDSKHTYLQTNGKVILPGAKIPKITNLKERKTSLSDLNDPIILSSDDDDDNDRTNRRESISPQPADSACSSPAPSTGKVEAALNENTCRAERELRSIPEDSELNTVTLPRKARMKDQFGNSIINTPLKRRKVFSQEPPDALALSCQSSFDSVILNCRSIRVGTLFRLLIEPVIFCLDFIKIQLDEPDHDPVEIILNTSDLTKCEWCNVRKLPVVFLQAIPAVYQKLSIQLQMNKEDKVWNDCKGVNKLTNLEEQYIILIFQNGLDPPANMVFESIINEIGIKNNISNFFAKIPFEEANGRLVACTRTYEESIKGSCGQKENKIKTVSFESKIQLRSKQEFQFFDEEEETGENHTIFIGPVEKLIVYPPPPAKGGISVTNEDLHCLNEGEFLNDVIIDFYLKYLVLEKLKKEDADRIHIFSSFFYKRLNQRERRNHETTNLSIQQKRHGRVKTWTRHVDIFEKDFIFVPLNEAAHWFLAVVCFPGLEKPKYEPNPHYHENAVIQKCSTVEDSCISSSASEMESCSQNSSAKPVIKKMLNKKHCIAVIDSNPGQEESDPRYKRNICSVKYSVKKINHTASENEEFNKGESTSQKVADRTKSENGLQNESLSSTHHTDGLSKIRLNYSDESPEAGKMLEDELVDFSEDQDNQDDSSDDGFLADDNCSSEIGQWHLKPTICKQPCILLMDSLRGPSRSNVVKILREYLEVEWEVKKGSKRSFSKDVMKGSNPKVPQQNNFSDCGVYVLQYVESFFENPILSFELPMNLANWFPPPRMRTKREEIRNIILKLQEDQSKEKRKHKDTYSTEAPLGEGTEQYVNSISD

[2] = target: T2, Apoptotic protease-activating factor 1 (Homo sapiens, UniProt O14727); assay type: functional
T2 sequence (O14727 whole entry): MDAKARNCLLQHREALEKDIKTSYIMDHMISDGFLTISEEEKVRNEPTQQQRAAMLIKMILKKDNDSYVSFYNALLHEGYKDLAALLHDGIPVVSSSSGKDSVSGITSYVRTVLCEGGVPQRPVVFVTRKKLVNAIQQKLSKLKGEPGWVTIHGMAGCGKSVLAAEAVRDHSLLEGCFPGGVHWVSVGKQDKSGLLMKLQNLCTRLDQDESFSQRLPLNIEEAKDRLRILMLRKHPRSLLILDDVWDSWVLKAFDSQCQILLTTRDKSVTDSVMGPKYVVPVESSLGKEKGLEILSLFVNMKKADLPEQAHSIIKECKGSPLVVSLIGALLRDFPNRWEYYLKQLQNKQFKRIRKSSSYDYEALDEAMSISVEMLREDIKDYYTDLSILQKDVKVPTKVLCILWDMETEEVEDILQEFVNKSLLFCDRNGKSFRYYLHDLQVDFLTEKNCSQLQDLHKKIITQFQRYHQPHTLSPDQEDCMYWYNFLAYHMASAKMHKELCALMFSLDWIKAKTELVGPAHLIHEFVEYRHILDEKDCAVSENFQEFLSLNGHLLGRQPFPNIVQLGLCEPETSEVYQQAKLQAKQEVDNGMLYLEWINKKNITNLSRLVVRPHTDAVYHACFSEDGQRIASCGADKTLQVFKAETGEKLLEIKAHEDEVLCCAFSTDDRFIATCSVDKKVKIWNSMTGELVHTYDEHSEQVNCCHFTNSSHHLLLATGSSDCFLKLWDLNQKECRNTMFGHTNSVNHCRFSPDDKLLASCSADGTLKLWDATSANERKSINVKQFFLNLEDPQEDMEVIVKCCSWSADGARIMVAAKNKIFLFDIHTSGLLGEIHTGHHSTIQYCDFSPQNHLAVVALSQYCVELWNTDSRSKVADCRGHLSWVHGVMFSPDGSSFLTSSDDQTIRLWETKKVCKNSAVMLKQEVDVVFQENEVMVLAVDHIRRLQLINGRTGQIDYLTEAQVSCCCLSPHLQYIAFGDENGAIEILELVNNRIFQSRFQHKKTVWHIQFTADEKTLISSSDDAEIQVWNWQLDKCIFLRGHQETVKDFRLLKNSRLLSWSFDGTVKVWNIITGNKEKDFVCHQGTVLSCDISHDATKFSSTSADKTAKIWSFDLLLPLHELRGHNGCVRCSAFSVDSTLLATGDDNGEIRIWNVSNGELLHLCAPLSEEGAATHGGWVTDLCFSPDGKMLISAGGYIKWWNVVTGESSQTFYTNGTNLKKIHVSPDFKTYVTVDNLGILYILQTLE

Row | SMILES | IC50 [1] | IC50 [2]
1 | COc1ccc(/C=N/Nc2cc(N3CCCC3)nc(N3CCCC3)n2)cc1 | 2.71 µM (active) | 2.63 µM (active)
2 | Oc1ccc(/C=N/Nc2cc(N3CCCC3)nc(N3CCCC3)n2)cc1 | 6.05 µM (active) | 0.707 µM (active)
3 | COc1ccc(S(=O)(=O)/N=C2\C=C(Nc3ccc(O)cc3)C(=O)c3ccccc32)cc1 |  | 0.441 µM (active)
